Reference: patent US20230382915A1, “GCN2 AND PERK KINASE INHIBITORS AND METHODS OF USE THEREOF” (Deciphera Pharmaceuticals, LLC, priority 2021, published 2023)

Columns and labels:
GCN2 kinase = GCN2 kinase (Homo sapiens (Human), UniProt Q9P2K8); assay: Biochemical assay for GCN2 (TR-FRET kinase activity); conditions: 1 mM ATP
Protocol: Activity of GCN2 kinase was determined using a TR-FRET kinase activity assay (e.g. Riddle et al. Analytical Biochemistry (2006) 356(1) 108-116). Assays were conducted in 384-well plates (13 μL assay volume) using 2 nM GCN2 (Carna Biosciences), 130 nM GFP-EIf2α (Invitrogen), 0.2 mg/mL E. coli tRNA (sigma) and 1 mM ATP in kinase buffer (Invitrogen). Inhibition of GCN2 was measured by adding serial diluted test compound (final assay concentration of 0.5% DMSO) followed by a 3-hour incubation. Tb-peIF2α (pSer52) antibody (Invitrogen) (2 nM final assay concentration) in kinase buffer containing EDTA (final assay concentration of 20 mM) was added. After a 60 min incubation at room temperature, TR-FRET was monitored using an excitation wavelength of 340 nm and emission wavelengths of 490 nm and 520 nm. The emission ratio (520/490) at each compound concentration of was converted to percent inhibition using controls (i.e., reaction with no test compound and reaction with a known inhibitor) and IC50 values were calculated by fitting a four-parameter sigmoidal curve to the data using Prism (GraphPad software).

[1] = system: GA-10 Burkitt lymphoma cells; assay: Cell proliferation, combination with standard of care, GA-10; assay type: cell-based; conditions: Homo sapiens, with 50 nM dexamethasone, 96 h, FIG. 6C, read-out: inhibition of cell proliferation IC50, combination treatment
Protocol: H929, RPMI8226, GA-10 and DoHH-2 cells (catalog #CRL-9068) were obtained from the American Type Culture Collection (ATTC, Manassas, VA). H929 Cells were maintained in RPMI-1640 medium supplemented with 20% heat-inactivated fetal bovine serum (catalog #A3840002, ThermoFisher Scientific, Waltham, MA), 1% Penicillin/Streptomycin/L-Glutamine (catalog #10378016, ThermoFisher Scientific, Waltham, MA), and 0.05 mM 2-mercaptoethanol (catalog #21985-023, ThermoFisher Scientific, Waltham, MA). […]
For cell proliferation assay appropriate number of cells (Forty thousand cells for H929. Twenty thousand cells for RPMI8226 and GA-10. Eight thousand cells for DoHH-2) were seeded per well in 200 μL in respective medium were dispensed into a 96-well black clear bottom plate. […] Plates were read on a Synergy2 or equivalent reader (Biotek, Winooski VT) using an excitation of 540 nm and an emission of 600 nm. At the end of the incubation of DoHH-2, cell viability was determined using CellTiter-Glo® assay (Promega, Madison, WI). Luminescence was measured using EnVision MultiLabel Reader (PerkinElmer, Waltham, MA). Data was analyzed using GraphPad Prism software (GraphPad, San Diego, CA) to calculate IC50 values.

HT-1080 spheroids = assay: Spheroid Western blot assay, HT-1080; assay type: cell-based
Protocol: NSCLC cell lines H358 (catalog #CRL-5807) and H2030 (catalog #CRL-5914), and fibrosarcoma cell line HT-1080 (catalog […]) were obtained from the American Type Culture Collect (ATTC, Manassas, VA). Cells were grown in RPMI-1640 medium supplemented with 10% heat-inactivated fetal bovine serum and 1% Penicillin/Streptomycin/L-Glutamine (Invitrogen, Carlsbad, CA) at 37° C., 5% CO2, and 95% humidity and maintained at 50-80% confluency until use. Cells were plated at 500,000 cells/well in 24-well Elplasia plates (Corning, Glendale, AZ) with complete growth media at 1 mL/well and incubated overnight at 37° C., 5% CO2, and 95% humidity to form spheroids. The next day, serial dilutions of test compounds were prepared in complete growth media and 500 μL existing media was removed from each well and replaced with fresh media containing compound titers. Spheroids were then incubated with test compounds for 4 hours or 24 hours under the same conditions. […] Western blots were performed to quantify phospho-GCN2 (R&D Systems, Minneapolis, MN), ATF4, CHOP, cleaved PARP, cleaved Caspase 3 and 7, and beta-Actin (Cell Signaling Technology, Danvers, MA). […]

[2] = system: HT-1080 cell line with GCN2 or PERK knockdown; assay: HT-1080 shRNA knockdown assay; assay type: cell-based
Protocol: Fibrosarcoma cell line HT-1080 (catalog […]) was obtained from the American Type Culture Collect (ATTC, Manassas, VA). Cells were grown in RPMI-1640 medium supplemented with 10% heat-inactivated fetal bovine serum and 1% Penicillin/Streptomycin/L-Glutamine (Invitrogen, Carlsbad, CA) at 37° C., 5% CO2, and 95% humidity and maintained at 50-80% confluency until use. shRNAs-expressing constructs targeting PERK, GCN2 or scrambled control were obtained from MISSION (Sigma, St. Louis, MO) and lentiviruses containing each construct were produced in-house. Cells were plated at 400,000 cells/well in 6-well tissue culture plates (ThermoFisher Scientific, Waltham, MA) with complete growth media and incubated overnight at 37° C., 5% CO2, and 95% humidity to attach. The next day, existing media was removed from each well and replenished with 1 mL/well fresh media containing 5 μg/mL polybrene (VectorBuilder, Chicago, IL). Cells were transduced with 200 μL/well corresponding lentivirus for 24 hours before being processed for western blot and cell proliferation assays.

Sequence of GCN2 kinase (Q9P2K8 whole entry): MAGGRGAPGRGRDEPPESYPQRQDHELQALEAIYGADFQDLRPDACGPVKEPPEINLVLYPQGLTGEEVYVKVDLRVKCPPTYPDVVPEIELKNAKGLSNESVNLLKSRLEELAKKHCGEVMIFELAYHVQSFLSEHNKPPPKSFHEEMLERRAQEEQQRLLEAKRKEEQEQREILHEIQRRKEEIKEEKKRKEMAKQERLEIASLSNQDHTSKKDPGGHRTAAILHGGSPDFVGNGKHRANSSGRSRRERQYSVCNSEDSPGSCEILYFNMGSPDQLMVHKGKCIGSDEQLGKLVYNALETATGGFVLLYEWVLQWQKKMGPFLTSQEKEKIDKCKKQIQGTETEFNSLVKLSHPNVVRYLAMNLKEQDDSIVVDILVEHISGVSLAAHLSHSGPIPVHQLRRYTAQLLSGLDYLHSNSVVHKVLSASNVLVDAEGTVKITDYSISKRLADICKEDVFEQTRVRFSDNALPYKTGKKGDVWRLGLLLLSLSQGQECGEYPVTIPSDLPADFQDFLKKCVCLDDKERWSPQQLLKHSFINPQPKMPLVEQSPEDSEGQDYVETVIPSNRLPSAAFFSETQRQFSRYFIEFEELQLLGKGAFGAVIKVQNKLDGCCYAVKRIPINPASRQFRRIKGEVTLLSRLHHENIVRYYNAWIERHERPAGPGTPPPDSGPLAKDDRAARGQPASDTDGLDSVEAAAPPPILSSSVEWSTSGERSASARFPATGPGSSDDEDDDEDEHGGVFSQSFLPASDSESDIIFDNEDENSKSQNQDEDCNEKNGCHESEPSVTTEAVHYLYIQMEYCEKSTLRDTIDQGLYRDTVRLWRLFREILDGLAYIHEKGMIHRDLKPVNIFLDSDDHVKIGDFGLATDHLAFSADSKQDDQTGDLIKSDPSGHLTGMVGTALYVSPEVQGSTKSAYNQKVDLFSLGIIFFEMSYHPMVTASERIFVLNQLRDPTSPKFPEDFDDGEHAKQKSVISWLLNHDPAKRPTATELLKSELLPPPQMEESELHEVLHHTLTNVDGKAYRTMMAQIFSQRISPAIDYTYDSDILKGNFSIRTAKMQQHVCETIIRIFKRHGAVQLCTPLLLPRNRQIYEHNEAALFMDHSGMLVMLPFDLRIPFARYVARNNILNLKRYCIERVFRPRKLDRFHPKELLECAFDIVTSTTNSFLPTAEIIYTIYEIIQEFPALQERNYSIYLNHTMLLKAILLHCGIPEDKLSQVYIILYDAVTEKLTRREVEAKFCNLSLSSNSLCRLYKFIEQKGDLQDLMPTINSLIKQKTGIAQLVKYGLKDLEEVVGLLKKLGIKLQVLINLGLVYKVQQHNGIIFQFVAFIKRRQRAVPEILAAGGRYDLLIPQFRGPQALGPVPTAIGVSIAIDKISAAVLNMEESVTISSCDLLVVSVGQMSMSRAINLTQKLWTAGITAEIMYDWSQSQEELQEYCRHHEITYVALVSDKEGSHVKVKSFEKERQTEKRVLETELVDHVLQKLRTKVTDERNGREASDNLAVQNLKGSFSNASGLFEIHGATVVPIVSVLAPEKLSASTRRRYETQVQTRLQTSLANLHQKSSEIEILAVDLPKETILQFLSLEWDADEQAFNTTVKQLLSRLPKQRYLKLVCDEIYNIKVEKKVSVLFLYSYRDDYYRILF

Cn1cc(-c2cccc(NS(=O)(=O)c3cc(Cl)cc(CO)c3Cl)c2F)c2c(N)ncnc21 [Example 2, N-(3-(4-amino-7-methyl-7H-pyrrolo[2,3-d]pyrimidin-5-yl)-2-fluorophenyl)-2,5-dichloro-3-(hydroxymethyl)benzenesulfonamide]
IC50 (GCN2 kinase): ≤ 100 nM
IC50 [1]: 4 nM
upregulation of ATF4 (Western blot quantification) (HT-1080 spheroids): ≤ 15 fold
compound-mediated spheroid growth inhibition upon knockdown ([2]; FIG. 13C): attenuated upon knockdown of GCN2 but not PERK
reduction of compound-mediated upregulation of ATF4 ([2]; upon knockdown of GCN2, FIG. 13B): 75%
reduction of compound-mediated upregulation of ATF4 ([2]; upon knockdown of PERK, FIG. 13B): 50%
